Assay results published in paper PMC3288074, “Structural and Functional Analysis of Validoxylamine A 7′-phosphate Synthase ValL Involved in Validamycin A Biosynthesis” (PLoS ONE, 2012).

B1: Validoxylamine A 7'-phosphate synthase ValL (enzyme)
chain: TGSEIFLASKRAAITYDTDPATGEPRAWLAPGGTGNVVAEQAGVLNISWIASADSEDDRRASALNPDGVTMELHSGREILVRLIRHDPAVFRNVQNFMTANLMWAANNYGWDRWTQPSFGSDAREGWADFGRFTRDFADAILKSSAQSADPVYLVHDYQLVGVPALLREQRPDAPILLFVHIPWPSADYWRILPKEIRTGILHGMLPATTIGFFADRWCRNFLESVADLLPDARIDREAMTVEWRGHRTRLRTMPLGYSPLTLDGRNPQLPEGIEEWADGHRLVVHSGRTDPIKNAERAVRAFVLAARGGGLEKTRMLVRMNPNRLYVPANADYVHRVETAVAEANAELGSDTVRIDNDNDVNHTIACFRRADLLIFNSTVDGQNLSTFEAPLVNERDADVILSETCGAAEVLGEYCRSVNPFDLVEQAEAISAALAAGPRQRAEAAARRRDAARPWTLEAWVQAQLDGLAADHAARTATAERFDTAPAVSTRADL
notes: ValL, validoxylamine A 7'-phosphate synthase of the validamycin A gene cluster of Streptomyces hygroscopicus var. jinggangensis 5008; the encoded protein has 497 aa; gene valL cloned into pET28a between EcoRI and BamHI sites; Removal of the tag is not mentioned; The ValL/trehalose structure (3T7D) was obtained from selenomethionine-labelled ValL; the apo structure (3T5T) from native ValL; also …

Columns and labels:
ValL = target: T1, ValL (Streptomyces hygroscopicus, UniProt H2K885); assay: X-ray crystallography (co-crystal, […] Å); assay type: binding; conditions: product analog; active site between N- and C-terminal domains; 5 mM trehalose incubated, 30% trehalose in cryoprotectant; pH 8.5, MgCl2; SeMet protein
T1 construct: dimer; selenomethionine-labelled for the 3T7D data set
T1 sequence (H2K885 1-497): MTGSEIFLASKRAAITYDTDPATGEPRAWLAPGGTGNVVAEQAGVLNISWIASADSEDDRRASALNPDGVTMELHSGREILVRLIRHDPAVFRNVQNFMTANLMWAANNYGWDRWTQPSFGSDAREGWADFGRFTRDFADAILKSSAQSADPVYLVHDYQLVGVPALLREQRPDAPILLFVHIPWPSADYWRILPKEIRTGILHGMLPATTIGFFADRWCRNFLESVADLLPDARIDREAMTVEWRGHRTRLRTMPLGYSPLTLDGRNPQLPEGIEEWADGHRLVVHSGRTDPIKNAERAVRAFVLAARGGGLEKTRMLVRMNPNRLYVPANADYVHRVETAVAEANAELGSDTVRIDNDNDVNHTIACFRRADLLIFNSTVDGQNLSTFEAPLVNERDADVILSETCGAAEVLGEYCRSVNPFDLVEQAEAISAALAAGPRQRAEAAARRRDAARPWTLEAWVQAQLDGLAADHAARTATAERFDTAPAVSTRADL

[1] = target: the molecule itself; assay: dynamic scattering; in solution; data not shown; conditions not given

| Molecule | X-ray crystallography (co-crystal, 1.7 Å) (ValL) | stoichiometry N [1] |
| --- | --- | --- |
| OC[C@H]1O[C@H](O[C@H]2O[C@H](CO)[C@@H](O)[C@H](O)[C@H]2O)[C@H](O)[C@@H](O)[C@@H]1O [trehalose] | The co-crystallization of ValL/trehalose led to the determination of ValL/trehalose complex structure. | – |
| B1 | – | 2 |
